Tests used:
Cervical HeLa = experiment: MTT anticancer assay, cervical HeLa cells; type: cell-based; conditions: 48 h, 1-30 µM, ± SD of three independent experiments; for IC50: Homo sapiens, HeLa
Method: (§1) The antiproliferative activity against four cancer cell lines, including prostate PC3, cervical HeLa, and triple-negative breast cancer (MCF-7 and MDA-MB231) was evaluated by MTT assay, while standard drug doxorubicin was used as a reference for comparison (Table 1).
(§2) Cytotoxicity against BJ human fibroblast cells and cytotoxicity against PC3, HeLa, MCF-7, and MDA-MB231 cancer cell lines were evaluated by following the procedure as described in the literature (Supplementary Materials). […]
(§3) The Biological Activity Assays Protocols
(§4) Cytotoxic activity of compounds was evaluated in 96-well flat-bottomed micro plates by using the standard MTT (3-[4, 5-dimethylthiazole-2-yl]-2, 5-diphenyl-tetrazolium bromide) colorimetric assay.
(§5) For this purpose, PC3 cells (Prostate Cancer) / BJ Human fibroblast cells / HeLa cells (Cervical Cancer) / MCF-7 and MDA-MB-231 breast cancer cell line were cultured in Dulbecco’s Modified Eagle Medium, supplemented with 5% of fetal bovine serum (FBS), 100 IU/ml of penicillin and 100 µg/ml of streptomycin in 75 cm2 flasks, and kept in 5% CO2 incubator at 37 °C. Exponentially growing cells were harvested, counted with haemocytometer and diluted with a particular medium. Cell culture with the concentration of 1x10^5 cells/ml was prepared and introduced (100 µL/well) into 96-well plates. After overnight incubation, medium was removed and 200 µL of fresh medium was added with different concentrations of compounds (1-30µM). After 48 hrs, 200 µL MTT (0.5 mg/ml) was added to each well and incubated further for 4 hrs. Subsequently, 100µL of DMSO was added to each well. The extent of MTT reduction to formazan within cells was calculated by measuring the absorbance at 570 nm, using a micro plate reader (Spectra Max plus, Molecular Devices, CA, USA). The cytotoxicity was recorded […]
(§6) (1 picture or pasted object on this page, not shown here) […]
(§7) as concentration causing 50% growth inhibition (IC50) for PC3 cells. The percent inhibition was calculated by using the following formula:
(§8) % inhibition = 100-((mean of O.D of test compound – mean of O.D of negative control)/ (mean of O.D of positive control – mean of O.D of negative control)*100).
(§9) The results (% inhibition) were processed by using Soft- Max Pro software (Molecular Device, USA).
(§10) Standard drug used in the MTT assay was doxorubicin. […]

Breast MCF-7 = experiment: MTT anticancer assay, breast MCF-7 cells; type: cell-based; set-up: key to IC50, Breast MCF-7: NA means that the tested compound did not show anticancer activity at 30 µM; NS: Not soluble; conditions: 1-30 µM, ± SD of three independent experiments; for IC50: Homo sapiens, MCF7, 48 h
Method: as §1, §2, §3, §4, §5, §6, §7, §8, §9, §10

Breast MDA-MB231 = experiment: MTT anticancer assay, breast MDA-MB231 cells; type: cell-based; set-up: key to IC50, Breast MDA-MB231: NA means that the tested compound did not show anticancer activity at 30 µM; NS: Not soluble; conditions: 1-30 µM, ± SD of three independent experiments; for IC50: Homo sapiens, MDA-MB-231, 48 h; for IC50, Breast MDA-MB231: 48 h
Method: as §1, §2, §3, §4, §5, §6, §7, §8, §9, §10

Human Fibroblast BJ = experiment: MTT cytotoxicity assay against BJ human fibroblast cells; type: cell-based; conditions: 48 h, 1-30 µM, ± SD of three independent experiments
Method: as §2, §3, §4, §5, §6, §7, §8, §9, §10

Prostate PC3 = experiment: MTT anticancer assay, prostate PC3 cells; type: cell-based; conditions: 1-30 µM, ± SD of three independent experiments; for IC50: Homo sapiens, PC-3, 48 h
Method: as §1, §2, §3, §4, §5, §6, §7, §8, §9, §10

Row | SMILES | melting point [°C] | IC50 (Cervical HeLa) [µM] | IC50 (Breast MCF-7) [µM] | IC50 (Breast MDA-MB231) [µM] | IC50 (Human Fibroblast BJ) [µM] | IC50 (Prostate PC3) [µM] | IC50, Breast MCF-7 (Breast MCF-7; 48 h) | IC50, Breast MDA-MB231 (Breast MDA-MB231) | IC50, Prostate PC3 (Prostate PC3; 48 h) | IC50, Cervical HeLa (Cervical HeLa)
1 | O=C1/C(=C/c2ccccc2)CCC[C@@]12[C@H](c1ccccc1)[C@H]1C[C@@H]3CCCC[C@@H]3N1[C@]21C(=O)Nc2ccccc21 [Compound 4a, (1. S,1′S,3′S,4a′S,8a′S,9a′R)-3-((E)-Benzylidene)-1′-phenyl-4a′,5′,6′,7′,8′,8a′,9′,9a′-octahydro-1′H-dispiro[cyclohexane-1,2′-pyrrolo[1,2-a]indole-3′,3″-indoline]-2,2″-dione] | 70 to 71 | 7.1 ± 0.2 | 25 ± 0.57 | 19.5 ± 0.56 | > 30 | 24.1 ± 1.1 |  |  |  | 
2 | O=C1/C(=C/c2ccccc2)CCC[C@@]12[C@H](c1ccccc1)[C@H]1C[C@@H]3CCCC[C@@H]3N1[C@]21C(=O)Nc2cc(Cl)ccc21 [Compound 4b, (1. S,1′S,3′S,4a′S,8a′S,9a′R)-3-((E)-Benzylidene)-6″-chloro-1′-phenyl-4a′,5′,6′,7′,8′,8a′,9′,9a′-octahydro-1′H-dispiro[cyclohexane-1,2′-pyrrolo[1,2-a]indole-3′,3″-indoline]-2,2″-dione] |  | > 30 | 27.7 ± 0.59 | 24.08 ± 0.02 | > 30 | 3.7 ± 1 |  |  |  | 
3 | O=C1/C(=C/c2ccccc2)CCC[C@@]12[C@H](c1ccccc1)[C@H]1C[C@@H]3CCCC[C@@H]3N1[C@]21C(=O)Nc2ccc(F)cc21 [Compound 4c, (1. S,1′S,3′S,4a′S,8a′S,9a′R)-3-((E)-Benzylidene)-5″-fluoro-1′-phenyl-4a′,5′,6′,7′,8′,8a′,9′,9a′-octahydro-1′H-dispiro[cyclohexane-1,2′-pyrrolo[1,2-a]indole-3′,3″-indoline]-2,2″-dione] | 70 to 71 | > 30 | 27.8 ± 1.02 | 20.6 ± 2.16 | > 30 | 17.9 ± 0.2 |  |  |  | 
4 | O=C1/C(=C/c2ccccc2)CCC[C@@]12[C@H](c1ccccc1)[C@H]1C[C@@H]3CCCC[C@@H]3N1[C@]21C(=O)Nc2ccc([N+](=O)[O-])cc21 [Compound 4d, (1. S,1′S,3′S,4a′S,8a′S,9a′R)-3-((E)-Benzylidene)-5″-nitro-1′-phenyl-4a′,5′,6′,7′,8′,8a′,9′,9a′-octahydro-1′H-dispiro[cyclohexane-1,2′-pyrrolo[1,2-a]indole-3′,3″-indoline]-2,2″-dione] | 111 to 122 | > 30 | > 30 | > 30 | > 30 | 29.8 ± 0.1 |  |  |  | 
5 | COc1ccc2c(c1)[C@]1(C(=O)N2)N2[C@H](C[C@@H]3CCCC[C@@H]32)[C@@H](c2ccccc2)[C@@]12CCC/C(=C\c1ccccc1)C2=O [Compound 4e, (1. S,1′S,3′S,4a′S,8a′S,9a′R)-3-((E)-Benzylidene)-5″-methoxy-1′-phenyl-4a′,5′,6′,7′,8′,8a′,9′,9a′-octahydro-1′H-dispiro[cyclohexane-1,2′-pyrrolo[1,2-a]indole-3′,3″-indoline]-2,2″-dione] | 111 to 122 | 26.5 ± 0.04 | > 30 | > 30 | > 30 | 19.6 ± 1.2 |  |  |  | 
6 | O=C1/C(=C/c2ccc(Br)cc2)CCC[C@@]12[C@H](c1ccc(Br)cc1)[C@H]1C[C@@H]3CCCC[C@@H]3N1[C@]21C(=O)Nc2cc(Cl)ccc21 [Compound 4f, (1. S,1′S,3′S,4a′S,8a′S,9a′R)-3-((E)-4-Bromobenzylidene)-1′-(4-bromophenyl)-6″-chloro-4a′,5′,6′,7′,8′,8a′,9′,9a′-octahydro-1′H-dispiro[cyclohexane-1,2′-pyrrolo[1,2-a]indole-3′,3″-indoline]-2,2″-dione] | 97 to 98 | > 30 |  |  | > 30 | > 30 | NS ^c | NS | inactive | 
7 | O=C1/C(=C/c2ccc(Br)cc2)CCC[C@@]12[C@H](c1ccc(Br)cc1)[C@H]1C[C@@H]3CCCC[C@@H]3N1[C@]21C(=O)Nc2ccc([N+](=O)[O-])cc21 [Compound 4g, (1. S,1′S,3′S,4a′S,8a′S,9a′R)-3-((E)-4-bromobenzylidene)-1′-(4-bromophenyl)-5″-nitro-4a′,5′,6′,7′,8′,8a′,9′,9a′-octahydro-1′H-dispiro[cyclohexane-1,2′-pyrrolo[1,2-a]indole-3′,3″-indoline]-2,2″-dione] | 125 to 126 | > 30 | > 30 |  | 21.7 ± 0.2 | 14.3 ± 1 |  | NS |  | 
8 | O=C1/C(=C/c2cccc(F)c2)CCC[C@@]12[C@H](c1cccc(F)c1)[C@H]1C[C@@H]3CCCC[C@@H]3N1[C@]21C(=O)Nc2cc(Cl)ccc21 [Compound 4h, (1. S,1′S,3′S,4a′S,8a′S,9a′R)-6″-Chloro-3-((E)-3-fluorobenzylidene)-1′-(3-fluorophenyl)-4a′,5′,6′,7′,8′,8a′,9′,9a′-octahydro-1′H-dispiro[cyclohexane-1,2′-pyrrolo[1,2-a]indole-3′,3″-indoline]-2,2″-dione] | 83 to 84 | > 30 | > 30 | 14.43 ± 0.09 | > 30 | > 30 |  |  |  | 
9 | O=C1/C(=C/c2cccc(F)c2)CCC[C@@]12[C@H](c1cccc(F)c1)[C@H]1C[C@@H]3CCCC[C@@H]3N1[C@]21C(=O)Nc2ccc([N+](=O)[O-])cc21 [Compound 4i, (1. S,1′S,3′S,4a′S,8a′S,9a′R)-3-((E)-3-Fluorobenzylidene)-1′-(3-fluorophenyl)-5″-nitro-4a′,5′,6′,7′,8′,8a′,9′,9a′-octahydro-1′H-dispiro[cyclohexane-1,2′-pyrrolo[1,2-a]indole-3′,3″-indoline]-2,2″-dione] | 107 to 108 | > 30 | > 30 | 7.63 ± 0.08 | > 30 | > 30 |  |  |  | 
10 | COc1ccc2c(c1)[C@]1(C(=O)N2)N2[C@H](C[C@@H]3CCCC[C@@H]32)[C@@H](c2cccc(F)c2)[C@@]12CCC/C(=C\c1cccc(F)c1)C2=O [Compound 4j, (1. S,1′S,3′S,4a′S,8a′S,9a′R)-3-((E)-3-Fluorobenzylidene)-1′-(3-fluorophenyl)-5″-methoxy-4a′,5′,6′,7′,8′,8a′,9′,9a′-octahydro-1′H-dispiro[cyclohexane-1,2′-pyrrolo[1,2-a]indole-3′,3″-indoline]-2,2″-dione] | 92 to 93 | 11.9 ± 0.04 | > 30 | 10.5 ± 0.71 | > 30 | > 30 |  |  |  | 
11 | O=C1/C(=C/c2cccc(Br)c2)CCC[C@@]12[C@H](c1cccc(Br)c1)[C@H]1C[C@@H]3CCCC[C@@H]3N1[C@]21C(=O)Nc2cc(Cl)ccc21 [Compound 4k, (1. S,1′S,3′S,4a′S,8a′S,9a′R)-3-((E)-3-Bromobenzylidene)-1′-(3-bromophenyl)-6″-chloro-4a′,5′,6′,7′,8′,8a′,9′,9a′-octahydro-1′H-dispiro[cyclohexane-1,2′-pyrrolo[1,2-a]indole-3′,3″-indoline]-2,2″-dione] | 115 to 116 | > 30 | > 30 | > 30 | > 30 | > 30 |  |  |  | inactive
12 | O=C1/C(=C/c2ccc(F)cc2)CCC[C@@]12[C@H](c1ccc(F)cc1)[C@H]1C[C@@H]3CCCC[C@@H]3N1[C@]21C(=O)Nc2cc(Cl)ccc21 [Compound 4l, (1. S,1′S,3′S,4a′S,8a′S,9a′R)-6″-Chloro-3-((E)-4-fluorobenzylidene)-1′-(4-fluorophenyl)-4a′,5′,6′,7′,8′,8a′,9′,9a′-octahydro-1′H-dispiro[cyclohexane-1,2′-pyrrolo[1,2-a]indole-3′,3″-indoline]-2,2″-dione] | 96 to 97 | 7.2 ± 0.5 | > 30 | 14.45 ± 0.08 | > 30 | > 30 |  |  |  | 
